From EP1282414B1, “FELBAMATE DERIVED COMPOUNDS FOR TREATING NEUROPATHIC PAIN” (University of Virginia Patent Foundation, priority 2000, dated 2001)

Experiments:
[1] = tested on: MES-induced seizure spread; test: Maximal Electroshock Seizure (MES) test, mice i.p.; type: in vivo; settings: for MES, number of animals protected / total number of animals tested: mice i.p.
Source text: The fluoro derivatives synthesized were submitted to the National Institute of Neurological Disorders and Stroke (NINDS) for evaluation in a standard panel of assays. Two convulsant tests (MES and scMET), and a toxicity screen (rotorod in mice, positional sense and gait in rats) were employed for evaluating the compounds activity as neuroprotecting agents. These testing procedures are described in detail in Molecular and Cellular Targets for Anti-epileptic Drugs, eds. G. Avanzini, G. Regesta, P. Tanganelli, M. Avoli, 1997, John Libbey & Company Ltd, pp 191-198. The felbamate derivatives were evaluated for anticonvulsant activity following intraperitoneal (i.p.) administration in mice and oral administration in rats.
The MES test is a model for generalized tonic-clonic seizures and is used to identify compounds which prevent seizure spread. The behavioral and electrographic seizures generated in this model are consistent with the human disorder. In the MES test, an electrical stimulus of 0.2 s in duration (50 mA in mice and 150 mA in rat at 60Hz) was delivered via corneal electrodes primed with an electrolyte solution containing an anesthetic agent. […] Rats were tested at time intervals between 0.25 and 4 hours following a standard oral dose of 30 mg/kg. Abolition of the hindlimb tonic extensor component indicates the test compound's ability to inhibit MES-induced seizure spread.
For the MES and scMET tests the data is presented in the form of the number of animals protected by the administered compound / total number of animals tested. […] Qualitative data was obtained for fluoro felbamate 12 (Tables 1 and 2A), fluoro monocarbamate felbamate 13 (Tables 1 and 2B), and fluorodioxo 16 (Tables 1 and 2C) and for cyclic felbamate 21 (Tables 5 and 6B) and cyclic monocarbamate 22 (Tables 5 and 6A). More extensive quantitative data was also obtained for fluoro felbamate 12 in mice (Table 3) and rats (Table 4).

[2] = tested on: MES-induced seizure spread; test: Maximal Electroshock Seizure (MES) test, mice oral; type: in vivo; settings: Mus musculus, oral administration
Method: The MES test is a model for generalized tonic-clonic seizures and is used to identify compounds which prevent seizure spread. The behavioral and electrographic seizures generated in this model are consistent with the human disorder. In the MES test, an electrical stimulus of 0.2 s in duration (50 mA in mice and 150 mA in rat at 60Hz) was delivered via corneal electrodes primed with an electrolyte solution containing an anesthetic agent. Mice were tested at 30 minutes and 4 hours following doses of 30, 100 and 300 mg/kg of test compound. Rats were tested at time intervals between 0.25 and 4 hours following a standard oral dose of 30 mg/kg. Abolition of the hindlimb tonic extensor component indicates the test compound's ability to inhibit MES-induced seizure spread.
Toxicity across time doe not occur until dosages of 300mg/kg. […] Quantitative results obtained for fluoro felbamate 12 in mice indicated a MES ED50 of approximately 20 mg/kg with a safety ratio of at least five (see Table 3). Results obtained for oral administration of fluoro felbamate 12 to rats indicated a MES ED50 of about 3 mg/kg with no toxicity at doses up to 500 mg/kg.

NC(=O)OCC(F)(COC(N)=O)c1ccccc1 [fluoro felbamate, 2-Fluoro-2-phenyl-1,3-propanediol dicarbamate]
ED50 ([1]; Mus musculus, ip, read-out: MES ED50, mouse, I.P.): ~20 mg/kg | MES, number of animals protected / total number of animals tested ([1]; 3 mg/kg, 0.5h): 0/4 | MES, number of animals protected / total number of animals tested ([1]; 3 mg/kg, 4.0h): 0/1 | MES, number of animals protected / total number of animals tested ([1]; 10 mg/kg, 0.5h): 0/4 | MES, number of animals protected / total number of animals tested ([1]; 10 mg/kg, 4.0h): 1/4 | MES, number of animals protected / total number of animals tested ([1]; 30 mg/kg, 0.5h): 1/1 | MES, number of animals protected / total number of animals tested ([1]; 30 mg/kg, 4.0h): 1/1 | MES, number of animals protected / total number of animals tested ([1]; 100 mg/kg, 0.5h): 3/3 | MES, number of animals protected / total number of animals tested ([1]; 100 mg/kg, 4.0h): 3/3 | MES, number of animals protected / total number of animals tested ([1]; 300 mg/kg, 0.5h): 1/1 | MES, number of animals protected / total number of animals tested ([1]; 300 mg/kg, 4.0h): 1/1 | MES ED50 ([1]; mouse, I.P.): 19.96 mg/kg | ED50 [2]: ~27 mg/kg
